Experimental data from ChEMBL document CHEMBL1201862, “PubChem BioAssay data set” (2004).
The source made the active and inactive calls.

What was measured:
[1] = target: T1, Tyrosine-protein phosphatase non-receptor type 22 (Homo sapiens, UniProt Q9Y2R2); assay: SAR LYP1 Fluorescent Assay using pCAP substrate for In Vitro dose response studies - Set 2. [Related pubchem assays (depositor defined):AID1779, AID1784, AID2135, AID449727]; format: functional
T1 sequence (Q9Y2R2 whole entry): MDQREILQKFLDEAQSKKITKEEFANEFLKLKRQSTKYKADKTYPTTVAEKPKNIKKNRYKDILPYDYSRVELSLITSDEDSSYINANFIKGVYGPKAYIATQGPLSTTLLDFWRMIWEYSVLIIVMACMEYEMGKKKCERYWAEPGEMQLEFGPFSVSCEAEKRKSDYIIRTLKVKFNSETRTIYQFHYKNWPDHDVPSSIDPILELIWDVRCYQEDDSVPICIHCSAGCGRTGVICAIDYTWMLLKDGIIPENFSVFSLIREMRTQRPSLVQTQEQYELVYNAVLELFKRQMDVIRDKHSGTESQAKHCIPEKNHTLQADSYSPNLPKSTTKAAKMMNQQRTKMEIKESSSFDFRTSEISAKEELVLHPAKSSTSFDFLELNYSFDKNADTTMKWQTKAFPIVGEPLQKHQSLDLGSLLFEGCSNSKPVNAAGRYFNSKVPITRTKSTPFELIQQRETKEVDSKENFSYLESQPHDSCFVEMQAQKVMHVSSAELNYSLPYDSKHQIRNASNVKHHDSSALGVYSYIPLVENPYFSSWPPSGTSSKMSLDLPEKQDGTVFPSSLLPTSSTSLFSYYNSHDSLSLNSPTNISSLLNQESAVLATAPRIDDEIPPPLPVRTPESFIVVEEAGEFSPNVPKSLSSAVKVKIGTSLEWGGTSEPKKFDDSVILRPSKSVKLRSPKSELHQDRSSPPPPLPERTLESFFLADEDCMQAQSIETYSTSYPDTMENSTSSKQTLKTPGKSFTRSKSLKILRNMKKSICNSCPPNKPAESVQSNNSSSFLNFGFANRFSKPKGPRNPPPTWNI

[2] = target: T2, Tyrosine-protein phosphatase non-receptor type 7 (Homo sapiens, UniProt P35236); assay: HTS HePTP Fluorescent Assay using OMFP substrate for In Vitro dose response studies. [Related pubchem assays (depositor defined):AID1059, AID1077, AID1784, AID2068, AID2085, AID435032, AID521]; format: functional
T2 sequence (P35236 whole entry): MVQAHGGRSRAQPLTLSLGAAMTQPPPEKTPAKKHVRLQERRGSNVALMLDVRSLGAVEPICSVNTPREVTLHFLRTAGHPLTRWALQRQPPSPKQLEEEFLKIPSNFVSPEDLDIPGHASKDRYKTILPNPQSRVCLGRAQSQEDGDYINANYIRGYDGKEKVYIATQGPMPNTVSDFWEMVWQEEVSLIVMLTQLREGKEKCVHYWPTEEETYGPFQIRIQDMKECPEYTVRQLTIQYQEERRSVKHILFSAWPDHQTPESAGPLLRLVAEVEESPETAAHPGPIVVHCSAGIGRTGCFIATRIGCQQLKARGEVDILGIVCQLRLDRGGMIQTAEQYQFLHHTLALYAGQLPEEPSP

[3] = target: T1, Tyrosine-protein phosphatase non-receptor type 22; assay: PubChem AID 2135
[4] = target: T3, Replicative DNA helicase DnaB (Mycobacterium tuberculosis, UniProt P9WMR3); assay: DnaB intein splicing inhibitors, dose response, biochemical, cell-free fluorescence (AID 449749); format: functional
T3 sequence (P9WMR3 whole entry): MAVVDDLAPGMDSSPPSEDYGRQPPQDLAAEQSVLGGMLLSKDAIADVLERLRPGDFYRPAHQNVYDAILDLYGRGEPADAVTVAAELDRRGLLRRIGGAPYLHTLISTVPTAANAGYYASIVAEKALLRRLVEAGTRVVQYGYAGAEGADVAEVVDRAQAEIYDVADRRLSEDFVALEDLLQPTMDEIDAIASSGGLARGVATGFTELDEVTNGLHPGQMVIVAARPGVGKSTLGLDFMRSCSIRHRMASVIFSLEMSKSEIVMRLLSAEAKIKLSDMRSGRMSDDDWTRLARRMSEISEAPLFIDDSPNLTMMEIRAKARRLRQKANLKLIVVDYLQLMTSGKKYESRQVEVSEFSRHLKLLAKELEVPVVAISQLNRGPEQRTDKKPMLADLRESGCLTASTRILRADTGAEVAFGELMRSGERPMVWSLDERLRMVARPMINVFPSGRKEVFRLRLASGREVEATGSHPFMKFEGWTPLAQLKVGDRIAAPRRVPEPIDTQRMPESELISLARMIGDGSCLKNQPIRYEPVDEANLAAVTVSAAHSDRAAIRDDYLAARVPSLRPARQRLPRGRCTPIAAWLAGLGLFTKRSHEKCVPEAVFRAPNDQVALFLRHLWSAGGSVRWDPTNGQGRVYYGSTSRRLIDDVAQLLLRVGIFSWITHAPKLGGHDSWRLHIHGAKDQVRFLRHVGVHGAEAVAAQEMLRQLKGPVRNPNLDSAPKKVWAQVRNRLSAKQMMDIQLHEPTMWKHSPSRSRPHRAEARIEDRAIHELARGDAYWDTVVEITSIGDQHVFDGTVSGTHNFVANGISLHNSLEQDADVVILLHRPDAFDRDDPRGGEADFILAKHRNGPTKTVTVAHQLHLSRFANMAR

[5] = cytotoxicity in KRAS-transformed pancreatic duct cells, primary screen, cell-based, fluorescence, HTS (AID 431); format: functional; conditions: Homo sapiens;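 note: cell line used: HPDE-C7K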
[6] = inhibitors of intracellular T. cruzi replication, confirmation, NIH3T3 host cells, beta-gal luminescence (AID 2044); format: functional, cell-based;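 note: intracellular parasites grown in NIH/3T3 mouse fibroblasts as host cells; luminescent beta-galactosidase reporter signal from transgenic T. cruzi replicating inside host cells; inhibitors lower the luminescence signal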
[7] = cytotoxicity toward NIH3T3 fibroblasts, dose response, counter-screen, cell-based, ATP luminescence, mouse fibroblasts (AID 2010); format: functional;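 note: cells exposed to compound for about 90 hours before reading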

COc1ccc(/C=C2\SC(=S)N(CCC(=O)Nc3ccc(C(=O)O)cc3)C2=O)cc1OC
active: IC50 [1] 1.38 µM | IC50 [2] 5.64 µM | IC50 [3] 2.96 µM

COc1ccc(Nc2ccc3c(c2)=NC2(CCCCC2)[N+]=3[O-])cc1
active: AC50 [4] 9.3 µM | EC50 [5] 8.16 µM | EC50 [6] 3.4 µM | EC50 [7] 9.19 µM
